Test results taken from the NIST ThermoML archive (doi:10.1021/je200093f).
“And” between values parts separate entries of the source, which are not always exact repeats. Equal entries are not always repeated.

Legend:
[1] = xn = mol fraction of the nth substance listed; details: 298.15 K, 101 kPa, Liquid, Vibrating tube method
[2] = excess molar enthalpy (molar enthalpy of mixing); xn = mol fraction of the nth substance listed; details: 298.15 K, 101 kPa, Liquid, Calvet calorimetry
[3] = 101.33 kPa, Liquid, Vibrating tube method

CN1CCCCC1 [N-methylpiperidine] + O
Details | excess molar enthalpy, [2] [kJ/mol] | mass density, [1] [kg/m3]
x1 = 0.000735 | -0.0213 | 996.66
x1 = 0.000736 | -0.0215 | 996.651
x1 = 0.000737 | -0.0214 | 996.658
x1 = 0.00147 | -0.0428 | 996.261
x1 = 0.001471 | -0.0431 | 996.253
x1 = 0.001473 | -0.0428 | 996.26
x1 = 0.002202 | -0.0645 | 995.866
x1 = 0.002206 | -0.0649 | 995.858
x1 = 0.002208 | -0.0645 | 995.862
x1 = 0.002934 | -0.0862 | 995.483
x1 = 0.002939 | -0.0861 | 995.482
x1 = 0.002942 | -0.0862 | 995.47
x1 = 0.003666 | -0.108 | 995.109
x1 = 0.003671 | -0.108 | 995.097
x1 = 0.003675 | -0.108 | 995.081
x1 = 0.004398 | -0.129 | 994.752
x1 = 0.004404 | -0.129 | 994.733
x1 = 0.004409 | -0.13 | 994.716

Cn1ccnc1 [1-methylimidazole]
Details | mass density [kg/m3]
[3], 298.15 K | 1031.14

Cc1cccc(C)n1 [2,6-dimethylpyridine] + O
Details | excess molar enthalpy, [2] [kJ/mol] | mass density, [1] [kg/m3]
x1 = 0.000772 | -0.0116 | 996.946
x1 = 0.000773 | -0.0117 | 996.945
x1 = 0.001543 | -0.0237 | 996.862
x1 = 0.001544 | -0.0237 | 996.861
x1 = 0.002312 | -0.0358 | 996.792
x1 = 0.002314 | -0.036 | 996.791
x1 = 0.00308 | -0.0481 | 996.732
x1 = 0.003083 | -0.0481 | 996.734
x1 = 0.003847 | -0.0604 | 996.685
x1 = 0.003851 | -0.0603 | 996.684
x1 = 0.004615 | -0.0724 | 996.644
x1 = 0.004618 | -0.0724 | 996.644

Cc1ccncc1 [4-methylpyridine] + CO
Details | excess molar enthalpy, [2] | mass density, [1]
x1 = 0.004138 | -0.0208 kJ/mol | 788.325 kg/m3
x1 = 0.004139 | -0.0208 kJ/mol | 788.319 kg/m3
x1 = 0.006195 | -0.0312 kJ/mol and -0.0313 kJ/mol | 789.246 kg/m3 and 789.247 kg/m3
x1 = 0.008243 | -0.0413 kJ/mol | 790.15 kg/m3
x1 = 0.008244 | -0.0415 kJ/mol | 790.152 kg/m3
x1 = 0.01028 | -0.0516 kJ/mol and -0.0513 kJ/mol | 791.066 kg/m3 and 791.039 kg/m3
x1 = 0.01231 | -0.0612 kJ/mol | 791.923 kg/m3
x1 = 0.01232 | -0.0612 kJ/mol | 791.924 kg/m3

Cc1cccnc1 [3-methylpyridine] + CO
Details | excess molar enthalpy, [2] | mass density, [1]
x1 = 0.002075 | – | 787.397 kg/m3
x1 = 0.004143 | -0.0191 kJ/mol | 788.32 kg/m3
x1 = 0.004144 | -0.0191 kJ/mol | 788.293 kg/m3
x1 = 0.006201 | -0.0286 kJ/mol | 789.24 kg/m3
x1 = 0.006203 | -0.0285 kJ/mol | 789.213 kg/m3
x1 = 0.008251 | -0.0382 kJ/mol | 790.158 kg/m3
x1 = 0.008253 | -0.0379 kJ/mol | 790.117 kg/m3
x1 = 0.01029 | -0.0473 kJ/mol and -0.0472 kJ/mol | 791.057 kg/m3 and 791.007 kg/m3
x1 = 0.01232 | -0.0563 kJ/mol | 791.892 kg/m3

Cc1cccnc1 [3-methylpyridine]
Details | mass density [kg/m3]
[3], 298.15 K | 952.61

Cc1cccc(C)n1 [2,6-dimethylpyridine] + CO
Details | excess molar enthalpy, [2] | mass density, [1]
x1 = 0.001741 | -0.0134 kJ/mol | –
x1 = 0.003476 | -0.0267 kJ/mol and -0.0268 kJ/mol | 788.131 kg/m3 and 788.126 kg/m3
x1 = 0.005205 | -0.0402 kJ/mol | 788.964 kg/m3
x1 = 0.005206 | -0.0401 kJ/mol | 788.971 kg/m3
x1 = 0.006928 | -0.0534 kJ/mol | 789.788 kg/m3
x1 = 0.006929 | -0.0532 kJ/mol | 789.802 kg/m3
x1 = 0.008643 | -0.0666 kJ/mol | 790.602 kg/m3
x1 = 0.008647 | -0.0665 kJ/mol | 790.625 kg/m3
x1 = 0.01035 | -0.0795 kJ/mol | 791.405 kg/m3
x1 = 0.01036 | -0.0796 kJ/mol | 791.414 kg/m3

CN1CCOCC1 [N-methylmorpholine] + O
Details | excess molar enthalpy, [2] | mass density, [1] [kg/m3]
x1 = 0.000812 | -0.0237 kJ/mol | 997.058
x1 = 0.000813 | -0.0236 kJ/mol | 997.058
x1 = 0.001623 | -0.0473 kJ/mol | 997.074
x1 = 0.001624 | -0.0471 kJ/mol | 997.074
x1 = 0.002433 | -0.0706 kJ/mol | 997.095
x1 = 0.002434 | -0.0703 kJ/mol | 997.094
x1 = 0.003242 | -0.0938 kJ/mol and -0.0937 kJ/mol | 997.121
x1 = 0.004048 | -0.117 kJ/mol | 997.151
x1 = 0.00405 | -0.117 kJ/mol | 997.153
x1 = 0.004854 | -0.14 kJ/mol | 997.187
x1 = 0.004858 | -0.14 kJ/mol | 997.188

Cc1cccnc1 [3-methylpyridine] + O
Details | excess molar enthalpy, [2] | mass density, [1]
x1 = 0.000922 | -0.00892 kJ/mol and -0.00888 kJ/mol | 997.03 kg/m3 and 997.031 kg/m3
x1 = 0.001842 | -0.0177 kJ/mol and -0.0176 kJ/mol | 997.017 kg/m3 and 997.018 kg/m3
x1 = 0.00276 | -0.0262 kJ/mol | 997.008 kg/m3
x1 = 0.002761 | -0.0263 kJ/mol | 997.007 kg/m3
x1 = 0.003677 | -0.0347 kJ/mol | 996.999 kg/m3
x1 = 0.003678 | -0.0348 kJ/mol | 996.998 kg/m3
x1 = 0.004592 | -0.043 kJ/mol | 996.991 kg/m3
x1 = 0.004594 | -0.0432 kJ/mol | 996.989 kg/m3
x1 = 0.005507 | -0.0511 kJ/mol | 996.982 kg/m3
x1 = 0.005509 | -0.0512 kJ/mol | 996.98 kg/m3

Cc1ccncc1 [4-methylpyridine] + O
Details | excess molar enthalpy, [2] | mass density, [1]
x1 = 0.000919 | -0.00907 kJ/mol and -0.00905 kJ/mol | 997.023 kg/m3 and 997.024 kg/m3
x1 = 0.001837 | -0.0181 kJ/mol and -0.018 kJ/mol | 997.005 kg/m3
x1 = 0.002753 | -0.0268 kJ/mol | 996.988 kg/m3
x1 = 0.002754 | -0.0268 kJ/mol | 996.988 kg/m3
x1 = 0.003667 | -0.0353 kJ/mol | 996.972 kg/m3
x1 = 0.003668 | -0.0353 kJ/mol | 996.971 kg/m3
x1 = 0.00458 | -0.0438 kJ/mol | 996.955 kg/m3 and 996.956 kg/m3
x1 = 0.005492 | -0.052 kJ/mol and -0.0521 kJ/mol | 996.939 kg/m3

CN1CCCCC1 [N-methylpiperidine] + CO
Details | excess molar enthalpy, [2] [kJ/mol] | mass density, [1] [kg/m3]
x1 = 0.001664 | -0.0172 | 786.815
x1 = 0.003322 | -0.0343 | 787.153
x1 = 0.003323 | -0.034 | 787.15
x1 = 0.004975 | -0.0511 | 787.488
x1 = 0.004976 | -0.051 | 787.486
x1 = 0.006622 | -0.0678 | 787.816
x1 = 0.006624 | -0.0675 | 787.816
x1 = 0.008264 | -0.0842 | 788.141
x1 = 0.008266 | -0.0839 | 788.139
x1 = 0.0099 | -0.1 | 788.458
x1 = 0.009904 | -0.1 | 788.454

CN1CCOCC1 [N-methylmorpholine] + CO
Details | excess molar enthalpy, [2] | mass density, [1]
x1 = 0.001834 | – | 787.377 kg/m3 and 787.359 kg/m3
x1 = 0.003662 | -0.0217 kJ/mol | 788.239 kg/m3
x1 = 0.003663 | -0.0218 kJ/mol | 788.267 kg/m3
x1 = 0.005484 | -0.0325 kJ/mol and -0.0323 kJ/mol | 789.159 kg/m3 and 789.119 kg/m3
x1 = 0.007298 | -0.043 kJ/mol | 790.004 kg/m3
x1 = 0.007299 | -0.0432 kJ/mol | 790.044 kg/m3
x1 = 0.009104 | -0.0534 kJ/mol | 790.862 kg/m3
x1 = 0.009108 | -0.0536 kJ/mol | 790.908 kg/m3
x1 = 0.0109 | -0.0636 kJ/mol | 791.711 kg/m3
x1 = 0.01091 | -0.0637 kJ/mol | 791.753 kg/m3

CN1CCCCC1 [N-methylpiperidine]
[3]
Details | mass density [kg/m3]
288.15 K | 821.53
293.15 K | 817.22
298.15 K | 812.62
303.15 K | 808.16
308.15 K | 803.61

Cn1ccnc1 [1-methylimidazole] + CO
Details | excess molar enthalpy, x1 = 0.005084 | excess molar enthalpy, x1 = 0.007607 | excess molar enthalpy, x1 = 0.01012 | excess molar enthalpy, x1 = 0.01261 | excess molar enthalpy, x1 = 0.0151 [kJ/mol] | mass density, x1 = 0.005084 | mass density, x1 = 0.007607 | mass density, x1 = 0.01012 | mass density, x1 = 0.01261 | mass density, x1 = 0.0151
[1] | – | – | – | – | – | 789.231 kg/m3 and 789.234 kg/m3 | 790.606 kg/m3 and 790.615 kg/m3 | 791.972 kg/m3 and 791.975 kg/m3 | 793.304 kg/m3 and 793.323 kg/m3 | 794.617 kg/m3 and 794.633 kg/m3
[2] | -0.0351 kJ/mol and -0.0352 kJ/mol | -0.0525 kJ/mol and -0.0526 kJ/mol | -0.07 kJ/mol and -0.0699 kJ/mol | -0.0871 kJ/mol and -0.0872 kJ/mol | -0.104 | – | – | – | – | –

Cc1cccc(C)n1 [2,6-dimethylpyridine]
Details | mass density [kg/m3]
[3], 298.15 K | 918.19

Cc1ccncc1 [4-methylpyridine]
Details | mass density [kg/m3]
[3], 298.15 K | 949.87

Cn1ccnc1 [1-methylimidazole] + O
Details | excess molar enthalpy, [2] [kJ/mol] | mass density, [1] [kg/m3]
x1 = 0.001133 | -0.0107 | 997.279
x1 = 0.001134 | -0.0106 | 997.281
x1 = 0.002264 | -0.0212 | 997.513
x1 = 0.002265 | -0.0211 | 997.514
x1 = 0.003392 | -0.0317 | 997.75
x1 = 0.003394 | -0.0317 | 997.75
x1 = 0.004518 | -0.0422 | 997.985
x1 = 0.00452 | -0.042 | 997.986
x1 = 0.005642 | -0.0525 | 998.222
x1 = 0.005644 | -0.0524 | 998.246
x1 = 0.006765 | -0.0629 | 998.459
x1 = 0.006766 | -0.0626 | 998.483

CN1CCOCC1 [N-methylmorpholine]
Details | mass density [kg/m3]
[3], 298.15 K | 914.15
